Reference: patent US6121489A (priority 1997, dated 2000)

The compounds below were run against α-glucosidase from bakers yeast (assay: α-Glucosidase inhibition assay, p-nitrophenyl-α-D-glucopyranoside substrate, 96-well format). Details: concentration necessary for 50% enzyme inhibition.
Assay type: biochemical
`CC(O)C(C(=O)NCc1ccccc1)N(Cc1ccc2ccccc2c1)C(=O)C(N)Cc1cn(Cc2ccc3ccccc3c2)c2ccccc12` (stereo not drawn) [R-(1-hydroxyethyl)] gave an IC50 greater than 1000 µM. `N[C@@H](Cc1cn(Cc2ccc3ccccc3c2)c2ccccc12)C(=O)N(Cc1ccc2ccccc2c1)[C@@H](Cc1cn(Cc2ccccc2)c2ccccc12)C(=O)NCc1ccccc1` [S-(N'-benzylindol-3-ylmethyl)] showed an IC50 of 632 µM. `NC(Cc1cn(Cc2ccc3ccccc3c2)c2ccccc12)C(=O)N(Cc1ccc2ccccc2c1)C(Cc1cn(Cc2ccccc2)c2ccccc12)C(=O)NCc1ccccc1` (stereo not drawn) [R-(N'-benzylindol-3-ylmethyl)] was tested, and the IC50 was 552 µM. Compound `N[C@@H](Cc1cn(Cc2ccc3ccccc3c2)c2ccccc12)C(=O)N(Cc1ccc2ccccc2c1)[C@@H](CCC(=O)O)C(=O)NCc1ccccc1` [S-(2-carboxyethyl)] has an IC50 greater than 1000 µM. With `CCN(C(=O)[C@@H](N)Cc1ccccc1)[C@@H](Cc1ccc2ccccc2c1)C(=O)NCc1ccc2ccccc2c1` [S-(napth-2-ylmethyl)] the IC50 was greater than 1000 µM. `CCN(C(=O)[C@@H](N)Cc1ccccc1)[C@H](C(=O)NCc1ccc2ccccc2c1)c1ccccc1` [S-(phenyl)] was tested, and the IC50 was 184 µM. In the case of `N[C@@H](Cc1cn(Cc2ccc3ccccc3c2)c2ccccc12)C(=O)N(CCC(=O)NCc1ccccc1)Cc1ccc2ccccc2c1` [hydrogen atom, AA = 1], the IC50 is reported as 770 µM. For `NC(Cc1cn(Cc2ccc3ccccc3c2)c2ccccc12)C(=O)N(Cc1ccc2ccccc2c1)C(CO)C(=O)NCc1ccccc1` (stereo not drawn) [S-(1-hydroxymethyl)], the IC50 was 176 µM. With `CCN(C(=O)[C@@H](N)Cc1ccccc1)[C@H](Cc1ccc(O)cc1)C(=O)NCc1ccc2ccccc2c1` [R-(4-hydroxybenzyl)] the IC50 was 540 µM. Work on `CC(O)C(C(=O)NCc1ccccc1)N(Cc1ccc2ccccc2c1)C(=O)C(N)Cc1cn(Cc2ccc3ccccc3c2)c2ccccc12` (stereo not drawn) [R'-(1-hydroxyethyl)] yielded an IC50 of 678 µM. `N[C@@H](Cc1cn(Cc2ccc3ccccc3c2)c2ccccc12)C(=O)N(Cc1ccc2ccccc2c1)[C@H](Cc1ccc2ccccc2c1)C(=O)NCc1ccccc1` [R-(napth-2-ylmethyl)] was tested, and the IC50 was greater than 1000 µM. `NC(Cc1cn(Cc2ccc3ccccc3c2)c2ccccc12)C(=O)N(Cc1ccc2ccccc2c1)C(CC1CCCCC1)C(=O)NCc1ccccc1` (stereo not drawn) [R-(cyclohexylmethyl)] was tested, and the IC50 was greater than 1000 µM.
